Measured values published in patent publication US20060263802A1 (priority 2003, published 2006).

How the values were obtained:
Type in all cases: binding
[1] = test system: human monoclonal antibody CRJB
[2] = test system: human monoclonal antibody CRJA
[3] = test system: human monoclonal antibody CR57
[4] = test system: human monoclonal antibody CRJB; remark: listed apart in the source
[5] = test system: human monoclonal antibody CRJA; remark: listed apart in the source
[6] = test system: human monoclonal antibody CR57; remark: listed apart in the source

Row | Sequence | Binding of CRJB (10 μg/ml) to looped/cyclic peptide (PEPSCAN-ELISA) [1] | Binding of CRJA (10 μg/ml) to looped/cyclic peptide (PEPSCAN-ELISA) [2] | Binding of CR57 (10 μg/ml) to looped/cyclic peptide (PEPSCAN-ELISA) [3] | Binding of CRJB to linear peptide (PEPSCAN-ELISA signal) [4] | Binding of CRJA to linear peptide (PEPSCAN-ELISA signal) [5] | Binding of CR57 to linear peptide (PEPSCAN-ELISA signal) [6] | Binding of CRJB (10 μg/ml) to looped/cyclic peptide (PEPSCAN-ELISA signal) [1] | Binding of CRJA (10 μg/ml) to looped/cyclic peptide (PEPSCAN-ELISA signal) [2] | Binding of CR57 (10 μg/ml) to looped/cyclic peptide (PEPSCAN-ELISA signal) [3] | Binding of CRJB to looped/cyclic peptide (PEPSCAN-ELISA signal) [1] | Binding of CRJA to looped/cyclic peptide (PEPSCAN-ELISA signal) [2] | Binding of CR57 to looped/cyclic peptide (PEPSCAN-ELISA signal) [3] | Binding of human monoclonal antibody CRJB to linear peptide (PEPSCAN-ELISA signal) [4] | Binding of human monoclonal antibody CRJA to linear peptide (PEPSCAN-ELISA signal) [5] | Binding of human monoclonal antibody CR57 to linear peptide (PEPSCAN-ELISA signal) [6]
1 | QLVNLHDFRSDEIEH | 44 | 66 | 47 | 113 | 89 | 60 |  |  |  |  |  |  |  |  | 
2 | CLDALESIMTTKSVS | 90 | 123 | 111 | 146 | 106 | 101 |  |  |  |  |  |  |  |  | 
3 | DRSLHSRVFPSGKCS |  |  |  | 142 | 187 | 98 | 100 | 99 | 91 |  |  |  |  |  | 
4 | KDGDEAEDFVEVHLP |  |  |  |  |  |  |  |  |  | 71 | 42 | 71 | 93 | 62 | 72
5 | LVVEDEGCTNLSGFS |  |  |  | 103 | 58 | 76 | 82 | 104 | 76 |  |  |  |  |  | 
6 | MQSSLLQQHMELLES | 90 | 99 | 72 | 113 | 113 | 65 |  |  |  |  |  |  |  |  | 
7 | HLPDVHNQVSGVDLG |  |  |  |  |  |  |  |  |  | 93 | 87 | 119 | 150 | 96 | 104
8 | LMDGTWVAMQTSNET | 76 | 92 | 106 | 106 | 102 | 96 |  |  |  |  |  |  |  |  | 
9 | PIDIHHLSCPNNLVV |  |  |  | 93 | 39 | 46 | 70 | 38 | 50 |  |  |  |  |  | 
10 | GVVTEAENYTNFVGY |  |  |  | 111 | 76 | 86 | 71 | 90 | 83 |  |  |  |  |  | 
11 | FPSGKCSGVAVSSTY |  |  |  | 134 | 93 | 64 | 74 | 80 | 90 |  |  |  |  |  | 
12 | DVHNQVSGVDLGLPN |  |  |  |  |  |  |  |  |  | 113 | 99 | 120 | 133 | 124 | 117
13 | KMNGFTCTGVVTEAE |  |  |  | 104 | 90 | 76 | 71 | 83 | 77 |  |  |  |  |  | 
14 | HDYTIWMPENPRLGM |  |  |  | 125 | 110 | 82 | 96 | 97 | 88 |  |  |  |  |  | 
15 | LYKSLKGACKLKLCG | 79 | 107 | 91 | 136 | 94 | 93 |  |  |  |  |  |  |  |  | 
16 | RLSHLRKLVPGFGKA | 111 | 106 | 111 | 123 | 93 | 93 |  |  |  |  |  |  |  |  | 
17 | IMTTKSVSFRRLSHL | 42 | 63 | 74 | 101 | 85 | 43 |  |  |  |  |  |  |  |  | 
18 | KSLKGACKLKLCGVL | 97 | 113 | 106 | 113 | 91 | 129 |  |  |  |  |  |  |  |  | 
19 | PTPDACRAAYNWKMA |  |  |  | 125 | 129 | 99 | 112 | 136 | 114 |  |  |  |  |  | 
20 | KRKHFRPTPDACRAA |  |  |  | 93 | 65 | 65 | 84 | 85 | 94 |  |  |  |  |  | 
21 | YTNFVGYVTTTFKRK |  |  |  | 104 | 76 | 51 | 90 | 72 | 71 |  |  |  |  |  | 
22 | CTNLSGFSYMELKVG |  |  |  | 110 | 84 | 47 | 96 | 79 | 70 |  |  |  |  |  | 
23 | VGGRCHPHVNGVFFN | 64 | 106 | 143 | 136 | 92 | 120 |  |  |  |  |  |  |  |  | 
24 | RAAYNWKMAGDPRYE |  |  |  | 130 | 92 | 90 | 101 | 86 | 141 |  |  |  |  |  | 
25 | IFTNSRGKRASKGSE |  |  |  | 125 | 97 | 77 | 75 | 88 | 85 |  |  |  |  |  | 
26 | EDFVEVHLPDVHNQV |  |  |  |  |  |  |  |  |  | 89 | 104 | 117 | 141 | 114 | 90
27 | SDEIEHLVVEELVRK | 85 | 99 | 96 | 117 | 97 | 101 |  |  |  |  |  |  |  |  | 
28 | DYTIWMPENPRLGMS |  |  |  | 127 | 106 | 93 | 66 | 86 | 83 |  |  |  |  |  | 
29 | LGPDGNVLIPEMQSS | 94 | 104 | 150 | 134 | 99 | 100 |  |  |  |  |  |  |  |  | 
